These results are taken from the NIST ThermoML archive (doi:10.1016/j.jct.2011.11.025).

For data set [1] the following is noted: 101.33 kPa, Liquid, Vibrating tube method.
Data set [2] can be described thus: activity coefficient (dimensionless); of the first substance listed, at infinite dilution; xn = mol fraction of the nth substance listed. To be noted: Liquid, Chromatography, x1 = 0.

Each structure is given as a SMILES string. Numbers after ± are expanded uncertainties.

In the case of `CCCCCCn1cc[n+](C)c1.N#C[B-](C#N)(C#N)C#N` [1-hexyl-3-methylimidazolium tetracyanoborate], the mass density in data set [1] (318.15 K) is reported as 976.11 ± 0.23 kg/m3; in data set [1] (328.15 K) it was 969.06 ± 0.23 kg/m3; in data set [1] (338.15 K), 962.08 ± 0.23 kg/m3; in data set [1] (348.15 K) it was 955.16 ± 0.23 kg/m3; in data set [1] (358.15 K), 948.32 ± 0.23 kg/m3; in data set [1] (368.15 K) it was 941.2 ± 0.23 kg/m3.
With `c1ccncc1` [pyridine] + CCCCCCn1cc[n+](C)c1.N#C[B-](C#N)(C#N)C#N, the activity coefficient in data set [2] (318.15 K) amounted to 0.38 ± 0.034; in data set [2] (328.15 K), 0.389 ± 0.034; in data set [2] (338.15 K), 0.4 ± 0.034; in data set [2] (348.15 K), 0.408 ± 0.034; in data set [2] (358.15 K), 0.418 ± 0.034; in data set [2] (368.15 K), 0.429 ± 0.034.
With `C=Cc1ccccc1` [styrene] + CCCCCCn1cc[n+](C)c1.N#C[B-](C#N)(C#N)C#N, the activity coefficient in data set [2] (328.15 K) turned out to be 0.83 ± 0.03; in data set [2] (338.15 K), 0.856 ± 0.027; in data set [2] (348.15 K), 0.878 ± 0.027; in data set [2] (358.15 K), 0.902 ± 0.026; in data set [2] (368.15 K), 0.926 ± 0.026.
In the case of `C1CCOC1` [tetrahydrofuran] + CCCCCCn1cc[n+](C)c1.N#C[B-](C#N)(C#N)C#N, the activity coefficient in data set [2] (318.15 K) turned out to be 0.453 ± 0.033; in data set [2] (328.15 K), 0.47 ± 0.033; in data set [2] (338.15 K), 0.485 ± 0.033; in data set [2] (348.15 K) it was 0.501 ± 0.032; in data set [2] (358.15 K) it was 0.513 ± 0.032; in data set [2] (368.15 K), 0.527 ± 0.032.
On to `c1ccsc1` [thiophene] + CCCCCCn1cc[n+](C)c1.N#C[B-](C#N)(C#N)C#N, for which the activity coefficient in data set [2] (318.15 K) stood at 0.636 ± 0.03; in data set [2] (328.15 K), 0.647 ± 0.03; in data set [2] (338.15 K), 0.657 ± 0.03; in data set [2] (348.15 K), 0.666 ± 0.03; in data set [2] (358.15 K), 0.678 ± 0.03; in data set [2] (368.15 K), 0.689 ± 0.03.
Consider `Cc1ccccc1` [toluene] + CCCCCCn1cc[n+](C)c1.N#C[B-](C#N)(C#N)C#N, for which the activity coefficient in data set [2] (318.15 K) was 0.975 ± 0.025; in data set [2] (328.15 K), 0.993 ± 0.025; in data set [2] (338.15 K) it was 1.02 ± 0.03; in data set [2] (348.15 K), 1.04 ± 0.03; in data set [2] (358.15 K) it was 1.06 ± 0.03; in data set [2] (368.15 K) it was 1.08 ± 0.03.
Regarding `O` [water] + CCCCCCn1cc[n+](C)c1.N#C[B-](C#N)(C#N)C#N, the activity coefficient amounted to 2.05 ± 0.09 in data set [2] (318.15 K); 1.87 ± 0.08 in data set [2] (328.15 K); 1.7 ± 0.07 in data set [2] (338.15 K); 1.55 ± 0.06 in data set [2] (348.15 K); 1.42 ± 0.05 in data set [2] (358.15 K); 1.33 ± 0.05 in data set [2] (368.15 K).
